Our source for the MIC and IC50 values is ChEMBL document CHEMBL4028820, “Novel bioactive molecules from Lentzea violacea strain AS 08 using one strain-many compounds (OSMAC) approach” (Bioorg Med Chem Lett, 2017).

One test concerns Pseudomonas aeruginosa. The test is described as follows: Antibacterial activity against Pseudomonas aeruginosa ATCC 10145 after 20 to 24 hrs by broth microdilution method. In kind it is functional. In general terms: Dilution methods test growth across graded concentrations, often in twofold steps.
The next test concerns Micrococcus luteus. In words: Antibacterial activity against Micrococcus luteus ATCC 10240 after 20 to 24 hrs by broth microdilution method. In kind it is functional.
The subject of test [1] is Staphylococcus epidermidis. In words: Antibacterial activity against Staphylococcus epidermidis ATCC 12228 after 20 to 24 hrs by broth microdilution method. The class given is functional.
The next test deals with Escherichia coli. In words: Antibacterial activity against Escherichia coli ATCC 10536 after 20 to 24 hrs by broth microdilution method. In kind it is functional.
The next test relates to Enterococcus faecalis. In words: Antibacterial activity against Enterococcus faecalis ATCC 51299 after 20 to 24 hrs by broth microdilution method. In kind it is functional.
In the next test the test system is Bacillus subtilis. In words: Antibacterial activity against Bacillus subtilis ATCC 11774 after 20 to 24 hrs by broth microdilution method. The class given is functional.
Another test deals with Staphylococcus aureus. In words: Antibacterial activity against Staphylococcus aureus ATCC 25923 after 20 to 24 hrs by broth microdilution method. In kind it is functional.
The next test has as its system Klebsiella pneumoniae. In words: Antibacterial activity against Klebsiella pneumoniae ATCC BAA-2146 after 20 to 24 hrs by broth microdilution method. In kind it is functional.
A further test deals with HCT-116. In words: Antiproliferative activity against human HCT116 cells after 48 hrs by MTT assay. The class given is functional, cell-based. Conditions: HCT-116, 48 h.
Another test relates to HepG2. The test is described as follows: Antiproliferative activity against human HepG2 cells after 48 hrs by MTT assay. In kind it is functional, cell-based. The following applies: HepG2, 48 h. For orientation: Formazan colour is commonly taken as a measure of viable cells.
The next test deals with T47D. The test is described as follows: Antiproliferative activity against human T47D cells after 48 hrs by MTT assay. The class given is functional, cell-based.
Another test concerns A549. The test is described as follows: Antiproliferative activity against human A549 cells after 48 hrs by MTT assay. In kind it is functional, cell-based. The following applies: A549, 48 h.

Converted amounts (≈) assume the structure as drawn.

A word on the MIC: it is the smallest concentration in the dilution series that meets the test's criterion for growth inhibition. For `NCC[C@H](O)C(=O)N[C@@H]1C[C@H](N)[C@@H](O[C@H]2O[C@H](CN)[C@@H](O)[C@H](O)[C@H]2O)[C@H](O)[C@H]1O[C@H]1O[C@H](CO)[C@@H](O)[C@H](N)[C@H]1O` [AMIKACIN], the MIC in the test on Pseudomonas aeruginosa is 2.5 µg/mL (≈ 4.27 µM); in the test on Micrococcus luteus, 0.39 µg/mL (≈ 0.666 µM); in test [1] it was 2.5 µg/mL (≈ 4.27 µM); against Escherichia coli, 0.312 to 0.625 µg/mL (≈ 0.533 to 1.07 µM); against Enterococcus faecalis, 0.39 µg/mL (≈ 0.666 µM); with Bacillus subtilis it was 0.625 µg/mL (≈ 1.07 µM). The results for the MIC against Staphylococcus aureus and against Klebsiella pneumoniae were 2.5 µg/mL (≈ 4.27 µM) and 5 µg/mL (≈ 8.54 µM), respectively.

In general, IC50 refers to the concentration that inhibits the measured activity by half. Read a high IC50 as a need for much substance. As for `O=c1[nH]cc(F)c(=O)[nH]1` [FLUOROURACIL], the IC50 in the test with HCT-116 was found to be 26.2 µM; in the test on HepG2 it was 20.1 µM; in the test on T47D, 12.1 µM; in the test on A549 it was 15.1 µM.

For `CC1=C2C(O)C(C(C)CO)CCC2(C)C=CC1=O` (stereo unspecified), the MIC in the test with Pseudomonas aeruginosa was 64 µg/mL (≈ 256 µM); in the test on Micrococcus luteus, 128 µg/mL (≈ 511 µM); in [1], greater than 128 µg/mL; against Escherichia coli, 32 µg/mL (≈ 128 µM); against Enterococcus faecalis, 128 µg/mL (≈ 511 µM); in the test with Bacillus subtilis, 128 µg/mL (≈ 511 µM). For the same compound, the MIC in the test with Staphylococcus aureus is 64 µg/mL (≈ 256 µM); in the test with Klebsiella pneumoniae it was 32 µg/mL (≈ 128 µM). In addition, the IC50 is 19.2 µM in the test on HCT-116, 38.8 µM with HepG2, 26.7 µM in the test with T47D and 22.3 µM in the test with A549.

Consider `C[C@H]1COc2c(N3CCN(C)CC3)c(F)cc3c(=O)c(C(=O)O)cn1c23.C[C@H]1COc2c(N3CCN(C)CC3)c(F)cc3c(=O)c(C(=O)O)cn1c23.O` [LEVOFLOXACIN], for which the MIC is 0.312 to 0.625 µg/mL against Pseudomonas aeruginosa; 0.078 µg/mL against Micrococcus luteus; 0.039 to 0.078 µg/mL in test [1]; 0.078 µg/mL with Escherichia coli; 0.156 µg/mL in the test with Enterococcus faecalis; 0.39 µg/mL against Bacillus subtilis. For the same compound, the MIC in the test on Staphylococcus aureus was 0.078 to 0.156 µg/mL; against Klebsiella pneumoniae, 2.5 to 5 µg/mL.

As for `CC(C)CC[C@H](O)[C@@H]1C(=O)OC[C@H]1CO`, the MIC in the test with Pseudomonas aeruginosa was determined as 32 µg/mL (≈ 148 µM); in the test on Micrococcus luteus, 128 µg/mL (≈ 592 µM); in [1], 128 µg/mL (≈ 592 µM); in the test on Escherichia coli, 32 µg/mL (≈ 148 µM); against Enterococcus faecalis, 128 µg/mL (≈ 592 µM); in the test with Bacillus subtilis, 128 µg/mL (≈ 592 µM). The MIC against Staphylococcus aureus and against Klebsiella pneumoniae was 64 µg/mL (≈ 296 µM) each time. Also, the IC50 in the test on HCT-116 is 62.3 µM; in the test with HepG2, greater than 100 µM; with T47D, greater than 100 µM; with A549, 71.5 µM.

As for `CCCCOC(=O)c1ccccc1C(=O)OCC(C)C`, the MIC (in the test on Pseudomonas aeruginosa; in the test on Micrococcus luteus; in [1]; against Escherichia coli; in the test with Enterococcus faecalis; in the test on Bacillus subtilis) was greater than 128 µg/mL in each case. Moreover, the MIC in the test on Staphylococcus aureus and against Klebsiella pneumoniae was greater than 128 µg/mL each time. For the same compound, the IC50 in the test with HCT-116 is 36.1 µM; in the test with HepG2, 53.3 µM; with T47D it was 48.7 µM; in the test with A549, 38 µM.
